Our source for the chromatographic logP and log p values is patent US6410581B1, “Disubstituted biphenyloxazolines” (Bayer Aktiengesellschaft, priority 1997, dated 2002).

For orientation: chromatographic logP means lipophilicity estimated from chromatographic retention.

A short description of one data set: log p, n-octanol/water partition coefficient by reverse phase HPLC (H2O/CH3CN). Format: physicochemical. The settings on record: n-octanol/water, pH 2.3.
In the case of `CCOC(=O)Oc1ccc(-c2ccccc2)cc1Cl` [(2-Chloro-4-phenyl-phenyl) ethyl carbonate], the chromatographic logP turned out to be 4.16.
For the molecule `CCCc1cc(-c2ccccc2)ccc1OC(=O)OCC` [(4-phenyl-2-propyl-phenyl) ethyl carbonate], the chromatographic logP came out at 4.76.
On the same count and under the same terms, in the case of `CCOC(=O)Oc1ccc(-c2ccccc2)cc1C` [(2-Methyl-4-phenyl-phenyl) ethyl carbonate] it was 4.04; in that of `CCCc1cc(-c2ccc(C(CCl)NC(=O)c3c(F)cccc3F)cc2)ccc1OC(C)=O` (centres unmarked) [VI-1, 2,6-Difluoro-N-[2-chloro-1-(4-(4-acetoxy-3-n-propylphenyl)phenyl)ethyl]-benzamide], 3.92; in that of `CCc1cc(-c2ccccc2)ccc1OC(C)=O` [4-acetoxy-3-ethyl-biphenyl], 3.92.
`CCCc1cc(-c2ccccc2)ccc1OC(C)=O` [4-acetoxy-3-propyl-biphenyl] came in with a chromatographic logP of 4.32.

The data set is the same for the next values; noted with them: n-octanol/water, pH 7.5.
For the molecule `C=CCOc1ccc(-c2ccc(C3COC(c4ccccc4C)=N3)cc2)cc1CCC` (centres unmarked) [Example I-314], the chromatographic logP worked out at 6.44.

Staying with this data set, now noted: pH 7.5.
`C#CC(C)Oc1ccc(-c2ccc(C3COC(c4ccccc4F)=N3)cc2)cc1CCC` (centres unmarked) [Example I-209]: the log p entry is listed as “log p: 5.32”.
Still for that read-out and setting: the value for `C=CCc1cc(-c2ccc(C3COC(c4c(F)cccc4F)=N3)cc2)ccc1OC(C)CC` (centres unmarked) [Example I-59] was “log p: 5.95 (pH 7.5)”; that for `CCc1cc(-c2ccc(C3COC(c4c(F)cccc4F)=N3)cc2)ccc1OC(C)C` (centres unmarked) [Example I-63] was “log p: 5.54 (pH 7.5)”.
For `C=CCOc1ccc(-c2ccc(C3COC(c4ccccc4Br)=N3)cc2)cc1CC=C` (centres unmarked) [Example I-293], the log p entry is on record as “log p: 5.66”.
As for `C=CCc1cc(-c2ccc(C3COC(c4ccccc4Br)=N3)cc2)cc(Cl)c1O` (centres unmarked) [II-21], the log p result is recorded as “log p: 4.42”.
Same read-out and setting: the value for `CCCc1cc(-c2ccc(C3COC(c4c(F)cccc4Cl)=N3)cc2)ccc1OC(C)CC` (centres unmarked) [Example I-86] was “log p: 6.62 (pH 7.5)”; that for `CCC(C)Oc1ccc(-c2ccc(C3COC(c4ccccc4F)=N3)cc2)cc1Cl` (centres unmarked) [Example I-89] was “log p: 5.49 (pH 7.5)”.
Turning to `C=CCc1cc(-c2ccc(C3COC(c4ccccc4Br)=N3)cc2)cc(Cl)c1OCCCCCC` (centres unmarked) [Example I-282], the log p entry is recorded as “log p: 7.36”.
On to `C=CCc1cc(-c2ccc(C3COC(c4c(F)cccc4Cl)=N3)cc2)ccc1OCC(C)C` (centres unmarked) [Example I-178], for which the log p entry is given as “log p: 6.47”.
Same read-out and setting: in the case of `CCCc1cc(-c2ccc(C3COC(c4c(F)cccc4F)=N3)cc2)ccc1OCc1ccc(C(C)(C)C)cc1` (centres unmarked) [Example I-60] it was “log p: 7.14 (pH 7.5)”; in that of `CCCc1cc(-c2ccc(C3COC(c4ccccc4I)=N3)cc2)ccc1OC(C)C` (centres unmarked) [Example I-57], “log p: 6.59 (pH 7.5)”; in that of `C#CCOc1ccc(-c2ccc(C3COC(c4ccccc4C)=N3)cc2)cc1Cl` (centres unmarked) [Example I-156], “log p: 4.81 (pH 7.5)”.
Same read-out and setting: in the case of `CC(C)Oc1ccc(-c2ccc(C3COC(c4ccccc4Br)=N3)cc2)cc1Cl` (centres unmarked) [Example I-302] it was “log p: 5.42”; in that of `C=CCc1cc(-c2ccc(C3COC(c4ccccc4Cl)=N3)cc2)ccc1OCC(C)C` (centres unmarked) [Example I-251], “log p: 6.52”.
Regarding `C=CCOc1ccc(-c2ccc(C3COC(c4ccccc4Br)=N3)cc2)cc1Cl` (centres unmarked) [Example I-304], the log p entry is recorded as “log p: 5.13”.
Same read-out and setting: the value for `Cc1cc(-c2ccc(C3COC(c4ccccc4F)=N3)cc2)ccc1OC(C)C` (centres unmarked) [Example I-190] was “log p: 5.23”.
On the same count and under the same terms, in the case of `CCCc1cc(-c2ccc(C3COC(c4ccccc4C)=N3)cc2)ccc1OC(C)C` (centres unmarked) [Example I-52] it was “log p: 6.78 (pH 7.5)”; in that of `CCCc1cc(-c2ccc(C3COC(c4ccccc4Cl)=N3)cc2)ccc1OCC(C)C` (centres unmarked) [Example I-37], “log p: 6.95 (pH 7.5)”.
In the case of `CCCc1cc(-c2ccc(C3COC(c4ccccc4F)=N3)cc2)ccc1OC(C)C` (centres unmarked) [Example I-202], the log p result is listed as “log p: 6.03”.
Still for that read-out and setting: in the case of `CCC(C)Oc1ccc(-c2ccc(C3COC(c4c(F)cccc4Cl)=N3)cc2)cc1Cl` (centres unmarked) [Example I-76] it was “log p: 5.69 (pH 7.5)”; in that of `CCCc1cc(-c2ccc(C3COC(c4ccccc4F)=N3)cc2)ccc1OCC(C)C` (centres unmarked) [Example I-204], “log p: 6.61”; in that of `CCC(C)Oc1ccc(-c2ccc(C3COC(c4ccccc4Br)=N3)cc2)cc1C` (centres unmarked) [Example I-16], “log p: 6.12 (pH = 7.5)”.
Still for that read-out and setting: the value for `C=CCc1cc(-c2ccc(C3COC(c4ccccc4Br)=N3)cc2)cc(Cl)c1OC(C)C` (centres unmarked) [Example I-281] was “log p: 6.35”.
Still for that read-out and setting: in the case of `CCCOc1ccc(-c2ccc(C3COC(c4ccccc4F)=N3)cc2)cc1Cl` (centres unmarked) [Example I-216] it was “log p: 5.22”; in that of `CCCc1cc(-c2ccc(C3COC(c4ccccc4C)=N3)cc2)ccc1OC(C)CC` (centres unmarked) [Example I-9], “log p: 7.28 (pH = 7.5)”.
For `CCCCCCOc1ccc(-c2ccc(C3COC(c4ccccc4F)=N3)cc2)cc1Cl` (centres unmarked) [Example I-96], the log p entry was “log p: 6.48 (pH 7.5)”.
Consider `Cc1cc(-c2ccc(C3COC(c4ccccc4Br)=N3)cc2)ccc1OC(C)C` (centres unmarked) [Example I-14], for which the log p result is recorded as “log p: 5.63 (pH = 7.5)”.
The same measure, in the same setting: the value for `Cc1cc(-c2ccc(C3COC(c4c(F)cccc4F)=N3)cc2)cc(C)c1OC(C)C` (centres unmarked) [Example I-44] was “log p: 5.23 (pH 7.5)”; that for `CCCc1cc(-c2ccc(C3COC(c4c(F)cccc4F)=N3)cc2)ccc1OC(C)CC` (centres unmarked) [Example I-10] was “log p: 6.33 (pH = 7.5)”; that for `C#CC(C)Oc1ccc(-c2ccc(C3COC(c4ccccc4F)=N3)cc2)cc1C` (centres unmarked) [Example I-196] was “log p: 4.68”.
Still for that read-out and setting: the value for `Cc1cc(-c2ccc(C3COC(c4ccccc4Cl)=N3)cc2)ccc1OC(C)C` (centres unmarked) [Example I-12] was “log p: 5.56 (pH = 7.5)”; that for `CCCc1cc(-c2ccc(C3COC(c4c(F)cccc4Cl)=N3)cc2)ccc1OC(C)C` (centres unmarked) [Example I-85] was “log p: 6.20 (pH 7.5)”; that for `C#CCOc1c(Cl)cc(-c2ccc(C3COC(c4ccccc4Br)=N3)cc2)cc1CC=C` (centres unmarked) [Example I-284] was “log p: 5.37”.
On the same count and under the same terms, in the case of `Cc1cc(-c2ccc(C3COC(c4ccccc4F)=N3)cc2)ccc1OCC(C)C` (centres unmarked) [Example I-191] it was “log p: 5.89”; in that of `CCC(C)Oc1ccc(-c2ccc(C3COC(c4ccccc4F)=N3)cc2)cc1Cl` (centres unmarked) [Example I-218], “log p: 5.49”.
Take `Cc1cc(-c2ccc(C3COC(c4c(F)cccc4Cl)=N3)cc2)ccc1OC(C)C` (centres unmarked) [Example I-163]: the log p result is “log p: 5.45”.
With `CC(C)COc1ccc(-c2ccc(C3COC(c4c(F)cccc4Cl)=N3)cc2)cc1Cl` (centres unmarked) [Example I-77], the log p result is on record as “log p: 5.89 (pH 7.5)”.
With `CCCc1cc(-c2ccc(C3COC(c4ccccc4Cl)=N3)cc2)ccc1OC(C)C` (centres unmarked) [Example I-240], the log p result is recorded as “log p: 6.35”.
Still for that read-out and setting: in the case of `CCCc1cc(-c2ccc(C3COC(c4c(F)cccc4Cl)=N3)cc2)ccc1OCC(C)C` (centres unmarked) [Example I-104] it was “log p: 6.82 (pH 7.5)”.
The same measure, in the same setting: the value for `CC(C)COc1ccc(-c2ccc(C3COC(c4ccccc4F)=N3)cc2)cc1Cl` (centres unmarked) [Example I-217] was “log p: 5.70”; that for `C=CCc1cc(-c2ccc(C3COC(c4ccccc4Cl)=N3)cc2)cc(C)c1O` (centres unmarked) [II-19] was “log p: 4.14”; that for `C=CCc1cc(-c2ccc(C3COC(c4c(F)cccc4F)=N3)cc2)cc(CC=C)c1OC(C)CC` (centres unmarked) [Example I-139] was “log p: 6.39”.
Same read-out and setting: the value for `CCCCCCOc1ccc(-c2ccc(C3COC(c4ccccc4F)=N3)cc2)cc1Cl` (centres unmarked) [Example I-219] was “log p: 6.48”; that for `CCC(C)Oc1ccc(-c2ccc(C3COC(c4c(F)cccc4F)=N3)cc2)cc1C` (centres unmarked) [Example I-7] was “log p*: 5.60 (pH = 7.5)”; that for `CCCc1cc(-c2ccc(C3COC(c4ccccc4Cl)=N3)cc2)ccc1OC(C)C` (centres unmarked) [Example I-36] was “log p: 6.35 (pH 7.5)”.
For `CCC(C)Oc1ccc(-c2ccc(C3COC(c4c(F)cccc4Cl)=N3)cc2)cc1C` (centres unmarked) [Example I-165], the log p entry is listed as “log p: 5.93”.
On the same count and under the same terms, in the case of `CC(C)COc1ccc(-c2ccc(C3COC(c4ccccc4F)=N3)cc2)cc1Cl` (centres unmarked) [Example I-90] it was “log p: 5.70 (pH 7.5)”.
On the same count and under the same terms, the value for `C=CCc1cc(-c2ccc(C3COC(c4ccccc4C)=N3)cc2)cc(Cl)c1OC(C)C` (centres unmarked) [Example I-146] was “log p: 6.75 (pH 7.5)”.
Consider `C=CCc1cc(-c2ccc(C3COC(c4ccccc4Br)=N3)cc2)ccc1OC(C)C` (centres unmarked) [Example I-291], for which the log p result was “log p: 6.02”.
Still for that read-out and setting: the value for `C=CCOc1ccc(-c2ccc(C3COC(c4ccccc4C)=N3)cc2)cc1C` (centres unmarked) [Example I-55] was “log p: 5.64 (pH 7.5)”; that for `CC(C)Oc1ccc(-c2ccc(C3COC(c4ccccc4F)=N3)cc2)cc1Cl` (centres unmarked) [Example I-32] was “log p (pH 7.5): 5.04”; that for `CCCc1cc(-c2ccc(C3COC(c4ccccc4Br)=N3)cc2)ccc1OC(C)C` (centres unmarked) [Example I-40] was “log p: 6.40 (pH 7.5)”.
On the same count and under the same terms, in the case of `C#CC(C)Oc1ccc(-c2ccc(C3COC(c4ccccc4F)=N3)cc2)cc1Cl` (centres unmarked) [Example I-222] it was “log p: 4.58”; in that of `C=CCc1cc(-c2ccc(C3COC(c4c(F)cccc4Cl)=N3)cc2)ccc1OC(C)C` (centres unmarked) [Example I-177], “log p: 5.82”; in that of `CCc1cc(-c2ccc(C3COC(c4c(F)cccc4F)=N3)cc2)ccc1O` (centres unmarked) [II-24], “log p: 3.42”.
On the same count and under the same terms, the value for `C=CCc1cc(-c2ccc(C3COC(c4c(F)cccc4F)=N3)cc2)cc(C)c1O` (centres unmarked) [II-12] was “log p: 3.83”; that for `C#CCOc1ccc(-c2ccc(C3COC(c4c(F)cccc4Cl)=N3)cc2)cc1CC=C` (centres unmarked) [Example I-182] was “log p: 4.81”.
In the case of `C=CCc1cc(-c2ccc(C3COC(c4ccccc4C)=N3)cc2)cc(Cl)c1O` (centres unmarked) [II-14], the log p entry was “log p: 4.75”.
On the same count and under the same terms, in the case of `CCCc1cc(-c2ccc(C3COC(c4ccccc4C)=N3)cc2)ccc1OCC(C)C` (centres unmarked) [Example I-64] it was “log p: 4.48 (pH 7.5)”; in that of `CCCCCCOc1ccc(-c2ccc(C3COC(c4c(F)cccc4Cl)=N3)cc2)cc1Cl` (centres unmarked) [Example I-83], “log p: 6.68 (pH 7.5)”.

The data set is the same for the next values; noted with them: pH not given.
Take `CCCc1cc(-c2ccc(C3COC(c4ccccc4F)=N3)cc2)ccc1OC(C)CC` (centres unmarked) [Example I-205]: the log p result was “log p: 6.47”.
